Laboratory results reported in ChEMBL document CHEMBL1201862, “PubChem BioAssay data set” (2004).
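Results reflect a 48-hour exposure of cells in 96-well plates to compound at five concentrations. GI50 = concentration required for 50% inhibition of growth.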 Active and inactive are the calls of the source. No stated cut-off is given here; in the data, active = GI50 up to about 1.1 µM and inactive = higher.

Legend:
Test in all cases: NCI-60 cell line screen, 48 h
CCRF-CEM = tested on: CCRF-CEM
MCF7 = tested on: MCF7
HOP-62 = tested on: HOP-62
NCI-H522 = tested on: NCI-H522
A549 = tested on: A549
T47D = tested on: T47D
LOX IMVI = tested on: LOX IMVI
OVCAR-4 = tested on: OVCAR-4
UACC-257 = tested on: UACC-257
PC-3 = tested on: PC-3
OVCAR-5 = tested on: OVCAR-5
NCI/ADR-RES = tested on: NCI/ADR-RES
BT-549 = tested on: BT-549
A498 = tested on: A498
Hs-578T = tested on: Hs-578T

Measured: GI50

C=C(Br)CN(C)CC(=C)Br
inactive: CCRF-CEM > 100 µM | MCF7 > 100 µM | HOP-62 > 100 µM | NCI-H522 > 100 µM | A549 > 100 µM | T47D > 100 µM | LOX IMVI > 100 µM | OVCAR-4 > 100 µM | UACC-257 > 100 µM | PC-3 > 100 µM | OVCAR-5 > 100 µM | NCI/ADR-RES > 100 µM | BT-549 > 100 µM | A498 > 100 µM | Hs-578T > 100 µM

CC1=CCC2CC1C(C(=O)c1c[nH]c3ccccc13)=NC2(C)C (stereo not given)
inactive: CCRF-CEM 22.4 µM | MCF7 54.6 µM | HOP-62 > 100 µM | NCI-H522 44.4 µM | A549 61 µM | T47D 29.4 µM | LOX IMVI 80.9 µM | OVCAR-4 40.3 µM | UACC-257 27.4 µM | PC-3 30.8 µM | OVCAR-5 > 100 µM | NCI/ADR-RES 59.3 µM | BT-549 40 µM | A498 > 100 µM | Hs-578T 41.9 µM

CCn1c(SCC(=O)N/N=C/c2ccccc2)nc2ccccc2c1=O
inactive: CCRF-CEM 9.89 µM | MCF7 4.75 µM | HOP-62 12.8 µM | NCI-H522 3.7 µM | A549 4.89 µM | T47D 21.7 µM | LOX IMVI 6.68 µM | OVCAR-4 14.1 µM | UACC-257 21.8 µM | PC-3 15 µM | OVCAR-5 > 52 µM | NCI/ADR-RES 4.05 µM | BT-549 17.3 µM | A498 8.22 µM | Hs-578T 8.41 µM

C=C(C)COc1ccc2c(c1)CCC1C2CCC2(C)C(=O)/C(=N/O)CC12 (stereo not given)
inactive: CCRF-CEM 1.94 µM | MCF7 2.9 µM | HOP-62 5.43 µM | NCI-H522 3.58 µM | A549 9.62 µM | T47D 2.2 µM | LOX IMVI 3.08 µM | OVCAR-4 2.39 µM | UACC-257 11.3 µM | PC-3 2.6 µM | OVCAR-5 3.93 µM | NCI/ADR-RES 4.27 µM | BT-549 6.41 µM | A498 11.1 µM | Hs-578T 3.67 µM

COc1ccc2cc(CN3CCC(C4CCN(Cc5ccc6cc(OC)ccc6c5)CC4)CC3)ccc2c1
inactive: CCRF-CEM 2.16 µM | MCF7 4.06 µM | HOP-62 6.43 µM | NCI-H522 2.3 µM | A549 24.9 µM | T47D 1.93 µM | LOX IMVI 2.14 µM | OVCAR-4 4.42 µM | UACC-257 2.09 µM | PC-3 15.8 µM | OVCAR-5 21.8 µM | NCI/ADR-RES 6.82 µM | BT-549 > 10 µM | A498 8.43 µM | Hs-578T 4.61 µM
